IC50 data for 59 compounds are collected here from patent publication US7507727B2, “Substituted quinobenzoxazine analogs and methods of using thereof” (Cylene Pharmaceuticals, Inc., priority 2003, dated 2009).

Molecules are shown by their SMILES. pIC50: −log10 of the molar value. Some results are limits rather than exact numbers.

In the first test the target is c-Myc template DNA (c-myc quadruplex). The test can be described thus: Quadruplex binding / stop assay (Taq polymerase arrest, capillary electrophoresis). Conditions: read-out: S DATA; Table 1D, stop assay data.
Consider `CN1CCCC1CCNC(=O)c1cn2c3c(c(NCCCN4CCCC4=O)c(F)cc3c1=O)Oc1cc3ccccc3cc1-2` (centres unmarked) [compound 1660], for which the pIC50 is 5.74.
Same read-out and setting: next, `O=C(NCCN1CCCC1)c1cn2c3c(c(SCCc4cnccn4)c(F)cc3c1=O)Oc1cc(Cl)ccc1-2` [compound 1784]: < 4.82.
Still for that read-out and setting: with `CC(=O)N1CCN(c2c(F)cc3c(=O)c(C(=O)NCCC4CCCN4C)cn4c3c2Oc2cc(Cl)ccc2-4)CC1` (centres unmarked) [compound 1807] the figure was < 4.82; with `CN1CCCC1CCNC(=O)c1cn2c3c(c(N4CCC(c5cnccn5)C4)c(F)cc3c1=O)Oc1cc(Cl)ccc1-2` (centres unmarked) [compound 1765], 5.44; with `COc1ccc(CCNC(=O)c2cn3c4c(c(N5CCC(N)C5)c(F)cc4c2=O)Oc2cc4ccccc4cc2-3)cc1OC` (centres unmarked) [compound 1705], < 4.82.
Same read-out and setting: next, `NC1CCN(c2c(F)cc3c(=O)c(C(=O)NCCc4ccc(O)cc4)cn4c3c2Oc2cc3ccccc3cc2-4)C1` (centres unmarked) [compound 1707]: < 4.82; `CN1CCCC1CCNC(=O)c1cn2c3c(c(N(C)C4CCCCNC4)c(F)cc3c1=O)Oc1cc3ccccc3cc1-2` (centres unmarked) [compound 1510]: < 4.82.
Take `O=C(NCCN1CCCC1)c1cn2c3c(c(N4CCN(C(=O)C(F)(F)F)CC4)c(F)cc3c1=O)Oc1cc(Cl)ccc1-2` [compound 1821]: the pIC50 was 5.00.
In the case of `CN1CCCC1CCNC(=O)c1cn2c3c(c(N4CCC(N5CCCCC5)CC4)c(F)cc3c1=O)Oc1cc3ccccc3cc1-2` (centres unmarked) [compound 1483], the pIC50 is 5.76.
The same measure, in the same setting: with `CN1CCCC1CCNC(=O)c1cn2c3c(c(N4C[C@@H](N)[C@H](c5ccccc5)C4)c(F)cc3c1=O)Oc1cc3ccccc3cc1-2` (some centres unmarked) [compound 1618] the figure was 6.12.
Same read-out and setting: with `CN1CCCC1CCNC(=O)c1cn2c3c(c(S(=O)(=O)CCc4cnccn4)c(F)cc3c1=O)Oc1cc3ccccc3cc1-2` (centres unmarked) [compound 1768] the figure was 6.04.
Same read-out and setting: with `CN1CCN(CCCNc2c(F)cc3c(=O)c(C(=O)NCCN4CCOCC4)cn4c3c2Oc2ccccc2-4)CC1` [compound 1573] the figure was < 4.82; with `COc1ccc(CCNc2c(F)cc3c(=O)c(C(=O)NCCC4CCCN4C)cn4c3c2Oc2cc3ccccc3cc2-4)cc1OC` (centres unmarked) [compound 1757], 5.01.
With `CN1CCCC1CCNC(=O)c1cn2c3c(c(N4CCC(c5cccnc5)C4)c(F)cc3c1=O)Oc1cc3ccccc3cc1-2` (centres unmarked) [compound 1508], the pIC50 is 6.12.
In the case of `COc1ccc2c(CCNc3c(F)cc4c(=O)c(C(=O)NCCC5CCCN5C)cn5c4c3Oc3cc4ccccc4cc3-5)c[nH]c2c1` (centres unmarked) [compound 1667], the pIC50 is 5.76.
On to `CC1(C)CC(NC(=O)c2cn3c4c(c(NCCN5CCCC5)ccc4c2=O)Oc2cc4ccccc4cc2-3)CC(C)(C)N1` [compound 1519], for which the pIC50 is 6.12.
In the case of `COc1ccc(CCNc2c(F)cc3c(=O)c(C(=O)NCCN4CCCC4)cn4c3c2Oc2cc3ccccc3cc2-4)cc1OC` [compound 1756], the pIC50 was 5.74.
On the same count and under the same terms, with `O=C(NCCC1CCCN1)c1cn2c3c(c(NCCN4CCCC4)ccc3c1=O)Oc1cc3ccccc3cc1-2` (centres unmarked) [compound 1516] the figure was 5.76; with `NCCCNC(=O)c1cn2c3c(c(N4CCC(N)C4)c(F)cc3c1=O)Oc1cc3ccccc3cc1-2` (centres unmarked) [compound 1716], 6.12; with `CN1CCN(CCCNc2c(F)cc3c(=O)c(C(=O)NCCC4CCCN4C)cn4c3c2Oc2ccccc2-4)CC1` (centres unmarked) [compound 1576], < 4.82.
The same measure, in the same setting: with `CCCCOCCCNc1c(F)cc2c(=O)c(C(=O)NCCC3CCCN3C)cn3c2c1Oc1cc2ccccc2cc1-3` (centres unmarked) [compound 1659] the figure was 5.76; with `CN1CCCC1CCNC(=O)c1cn2c3c(c(N4CCC(c5cnccn5)C4)c(F)cc3c1=O)Oc1ccc(Cl)cc1-2` (centres unmarked) [compound 1764], 5.32.
The same measure, in the same setting: next, `CN1CCCC1CCNC(=O)c1cn2c3c(c(NCCN4CCCC4)c(F)cc3c1=O)Oc1ccccc1-2` (centres unmarked) [compound 1596]: < 4.82; `CN1CCCC1CCNC(=O)c1cn2c3c(c(NCCN4CCCCC4)c(F)cc3c1=O)Oc1cc3ccccc3cc1-2` (centres unmarked) [compound 1488]: 6.12.
Regarding `NC1CCN(c2c(F)cc3c(=O)c(C(=O)NCCc4c[nH]c5ccccc45)cn4c3c2Oc2cc3ccccc3cc2-4)C1` (centres unmarked) [compound 1696], the pIC50 was < 4.82.
Still for that read-out and setting: next, `O=C(NCCN1CCCC1)c1cn2c3c(c(NCCN4CCOCC4)ccc3c1=O)Oc1cc3ccccc3cc1-2` [compound 1546]: < 4.82; `CC(C)N1CCN(c2c(F)cc3c(=O)c(C(=O)NCCN4CCCC4)cn4c3c2Oc2ccc(C#N)cc2-4)CC1` [compound 1796]: < 4.82.
Still for that read-out and setting: next, `CC1CCCC(C)N1CCCNc1c(F)cc2c(=O)c(C(=O)NCCC3CCCN3C)cn3c2c1Oc1cc2ccccc2cc1-3` (centres unmarked) [compound 1687]: 5.76; `CN1CCCC1CCNC(=O)c1cn2c3c(c(N4CCC(c5cnccn5)C4)c(F)cc3c1=O)Oc1ccc(C#N)cc1-2` (centres unmarked) [compound 1777]: 5.17.
Same read-out and setting: next, `CN1CCN(CCCNc2c(F)cc3c(=O)c(C(=O)N4CCN(C)CC4)cn4c3c2Oc2ccccc2-4)CC1` [compound 1582]: < 4.82.

The test is the same for the next values; noted with them: read-out: Stop Data c-Myc μM; concentration at which 50% of the DNA was arrested (arrested:full-length 1:1).
Turning to `CN(C)/C=N/CCCNC(=O)c1cn2c3c(c(N4CC[C@@H](NC(=O)OC(C)(C)C)C4)c(F)cc3c1=O)Oc1cc3ccccc3cc1-2` [compound 211], the IC50 turned out to be 1.75 µM.
On the same count and under the same terms, next, `CN1CCCC1CCNC(=O)c1cn2c3cc4c(=O)c5ccccc5c(=O)c4cc3oc3c(N4CCC(N)C4)c(F)cc(c1=O)c32` (centres unmarked) [compound 489]: 0.5 µM; `COc1ccc2[nH]cc(CCNC(=O)c3cn4c5c(c(N6CCC(N)C6)c(F)cc5c3=O)Oc3cc5ccccc5cc3-4)c2c1` (centres unmarked) [compound 299]: 1.75 µM; `CN(C)CCCCNC(=O)c1cn2c3c(c(NCCC4CCCN4C)c(F)cc3c1=O)Oc1cc3ccccc3cc1-2` (centres unmarked) [compound 125]: 1.75 µM.
The same measure, in the same setting: next, `CN(C)CCCCNc1ccc2c(=O)c(C(=O)NCCC3CCCN3C)cn3c2c1Oc1cc2ccccc2cc1-3` (centres unmarked) [compound 275]: 1.75 µM; `CN1CCCC1CCNC(=O)c1cn2c3c(c(NCCCN4CCOCC4)ccc3c1=O)Oc1cc3ccccc3cc1-2` (centres unmarked) [compound 273]: 1.75 µM.
The same measure, in the same setting: with `O=C(NCCN1CCCC1)c1cn2c3c(c(NCCN4CCOCC4)c(F)cc3c1=O)Oc1cc3ccccc3cc1-2` [compound 58] the figure was 2.5 µM; with `CN(C)/C=N/C1CCN(c2c(F)cc3c(=O)c(C(=O)NCCC4CCCN4C)cn4c3c2Oc2cc3ccccc3cc2-4)C1` (centres unmarked) [compound 98], 2.5 µM; with `CN1CCCC1CCNC(=O)c1cn2c3c(c(N4CC[C@@H](NC(=O)CCN5CCOCC5)C4)c(F)cc3c1=O)Oc1cc3c(cc1-2)oc1ccccc13` (some centres unmarked) [compound 402], 0.75 µM.
Take `CN1CCCC1CCNC(=O)c1cn2c3c(c(N4CC[C@@H](NC(=O)CCNCCCN5CCOCC5)C4)c(F)cc3c1=O)Oc1cc3c(cc1-2)oc1ccccc13` (some centres unmarked) [compound 416]: the IC50 is 0.75 µM.
The same measure, in the same setting: with `CN1CCN(CCCNc2c(F)cc3c(=O)c(C(=O)NCCN4CCCC4)cn4c3c2Oc2cc3ccccc3cc2-4)CC1` [compound 395] the figure was 0.75 µM.
Consider `NC1CCN(C(=O)c2cn3c4cc5c(=O)c6ccccc6c(=O)c5cc4oc4c(NCCCN5CCOCC5)c(F)cc(c2=O)c43)C1` (centres unmarked) [compound 94], for which the IC50 came to 2.5 µM.
`Nc1c(F)cc2c(=O)c(C(=O)O)cn3c2c1Oc1c-3ccc2ccccc12` [compound 16]: the IC50 is 0.9 µM.
The same measure, in the same setting: with `CN(C)CCCCNC(=O)c1cn2c3c(c(N4CCC(N)C4)ccc3c1=O)Oc1cc3ccccc3cc1-2` (centres unmarked) [compound 589] the figure was 0.18 µM; with `CC1(C)CC(NC(=O)c2cn3c4c(c(N5CCC(N)C5)c(F)cc4c2=O)Oc2cc4ccccc4cc2-3)CC(C)(C)N1` (centres unmarked) [compound 445], 0.75 µM.
The same measure, in the same setting: with `CN1CCN(C(=O)c2cn3c4c(c(N5CC[C@@H](N)C5)c(F)cc4c2=O)Oc2c-3ccc3ccccc23)CC1` [compound 81] the figure was 2.5 µM; with `CCN(CC)CCCC(C)NC(=O)c1cn2c3c(c(N4CCC(NC(=O)OC(C)(C)C)C4)c(F)cc3c1=O)Oc1cc3ccccc3cc1-2` (centres unmarked) [compound 241], 1.75 µM.
Take `CN1CCCC1CCNc1ccc2c(=O)c(C(=O)NCCN3CCOCC3)cn3c2c1Oc1cc2ccccc2cc1-3` (centres unmarked) [compound 271]: the IC50 amounted to 1.75 µM.
Consider `CN1CCCC1CCNC(=O)c1cn2c3c(c(N4CC[C@@H](NC(=O)OC(C)(C)C)C4)c(F)cc3c1=O)Oc1c-2ccc2ccccc12` (some centres unmarked) [compound 132], for which the IC50 amounted to 1.75 µM.
Still for that read-out and setting: with `CN1CCCC1CCNC(=O)c1cn2c3c(c(N4CCC(N)CC4)c(F)cc3c1=O)Oc1cc3ccccc3cc1-2` (centres unmarked) [compound 281] the figure was 1.75 µM; with `CN(C)CCCCNc1ccc2c(=O)c(C(=O)NCCN3CCCC3)cn3c2c1Oc1cc2ccccc2cc1-3` [compound 326], 1 µM; with `CN1CCCC1CCNCC(=O)N[C@@H]1CCN(c2c(F)cc3c(=O)c(C(=O)N4CCCC4)cn4c3c2Oc2cc3c(cc2-4)oc2ccccc23)C1` (some centres unmarked) [compound 412], 0.75 µM.
In the case of `CN(C)CCCCNc1c(F)cc2c(=O)c(C(=O)O)cn3c4cc5oc6cc([N+](=O)[O-])ccc6[nH]c5cc4oc1c23` [compound 19], the IC50 is 0.75 µM.
The same measure, in the same setting: with `CN1CCCC1CCNCC(=O)N[C@@H]1CCN(c2c(F)cc3c(=O)c(C(=O)NCCCn4ccnc4)cn4c3c2Oc2cc3c(cc2-4)oc2ccccc23)C1` (some centres unmarked) [compound 414] the figure was 0.75 µM; with `CN1CCN(CCCNc2ccc3c(=O)c(C(=O)NCCCN4CCOCC4)cn4c3c2Oc2cc3ccccc3cc2-4)CC1` [compound 278], 1.75 µM; with `CN1CCCC1CCNC(=O)c1cn2c3c(c(NC4CCN(Cc5ccccc5)CC4)c(F)cc3c1=O)Oc1cc3ccccc3cc1-2` (centres unmarked) [compound 258], 1.75 µM.
On the same count and under the same terms, with `CC(C)(C)OC(=O)N[C@@H]1CCN(c2c(F)cc3c(=O)c(C(=O)NCCCN=C(N)N)cn4c3c2Oc2cc3ccccc3cc2-4)C1` [compound 429] the figure was 0.75 µM; with `CC(C)(C)OC(=O)N[C@@H]1CCN(C(=O)c2cn3c4c(c(N5CC[C@@H](NC(=O)OC(C)(C)C)C5)c(F)cc4c2=O)Oc2cc4ccccc4cc2-3)C1` [compound 65], 2.5 µM; with `N[C@@H]1CCN(C(=O)c2cn3c4c(c(NCCCN5CCOCC5)c(F)cc4c2=O)Oc2c-3ccc3ccccc23)C1` [compound 83], 2.5 µM.
